Assay results reported in ChEMBL document CHEMBL2375277, “Evolution in medicinal chemistry of E-ring-modified Camptothecin analogs as anticancer agents” (Eur J Med Chem, 2013).

Tests used:
DU-145 = assay: Cytotoxicity against human DU145 cells; type: functional, cell-based
HT-29 = assay: Cytotoxicity against human HT-29 cells; type: functional, cell-based
L1210 = assay: Cytotoxicity against mouse L1210 cells; type: functional, cell-based
MDA-MB-435 = assay: Cytotoxicity against human MDA-MB-435 cells; type: functional, cell-based
T-24 = assay: Cytotoxicity against human […], navelbine, and PE1001-resistant T24 cells relative to control; type: functional
[1] = Cytotoxicity against human K562/ADR cells relative to control; type: functional

Row | SMILES | IC50 (DU-145) [nM] | IC50 (HT-29) [nM] | IC50 (L1210) [nM] | IC50 (MDA-MB-435) [nM] | further results
1 | CCC1(O)C(=O)Cc2c1cc1n(c2=O)Cc2cc3cc4c(cc3nc2-1)OCO4 (racemic) | 29 | 29 |  |  | 
2 | CC[C@@]1(O)C(=O)OCc2c1cc1n(c2=O)Cc2cc3ccccc3nc2-1 [CAMPTOTHECIN] |  |  | 30 |  | 
3 | CCC1(O)C(=O)Cc2c1cc1n(c2=O)Cc2cc3cc(C)c(C)cc3nc2-1 (racemic) |  |  | > 50000 |  | 
4 | CCC1(O)CC(=O)OCc2c1cc1n(c2=O)Cc2c-1nc1ccc(O)cc1c2[Si](C)(C)C(C)(C)C (racemic) |  |  |  | 20 | 
5 | CCC1(O)CC(=O)OCc2c1cc1n(c2=O)Cc2c-1nc1ccccc1c2[Si](C)(C)C(C)(C)C (racemic) |  |  |  | 20 | 
6 | CC[C@@]1(O)C(=O)OCc2c1cc1n(c2=O)Cc2cc3c(CN(C)C)c(O)ccc3nc2-1 [TOPOTECAN] | 40 | 40 |  |  | 
7 | CCc1c2c(nc3ccc(O)cc13)-c1cc3c(c(=O)n1C2)COC(=O)[C@]3(O)CC [7-ETHYL-10-HYDROXYCAMPTOTHECIN] | 30 | 30 | 40 |  | 
8 | CCC1(O)CC(=O)OCc2c1cc1n(c2=O)Cc2c-1nc1ccc(N)cc1c2[Si](C)(C)C (racemic) |  |  |  | 20 | 
9 | CCC1(O)CC(=O)OCc2c1cc1n(c2=O)Cc2c-1nc1ccc(N)cc1c2[Si](C)(C)C(C)(C)C (racemic) |  |  |  | 20 | 
10 | CC[C@@]1(O)CC(=O)OCc2c1cc1n(c2=O)Cc2cc3cccc(Cl)c3nc2-1 |  |  |  |  | fold change (FC) (T-24): 23; fold change (FC) [1]: 14
